The text below walks through data of paper PMC7833758, “Characterization of fructooligosaccharide metabolism and fructooligosaccharide-degrading enzymes in human commensal butyrate producers” (Gut Microbes, 2021).

The structures appear in SMILES notation.

The test deals with T1, R.intestinalis-GH32 (Roseburia intestinalis, UniProt C7G9C0).
T1 construct: gene sacC; expressed from pET28a in E. coli BL21(DE3), cell-free extract; intracellular; cluster 3, only GH32 of the strain
T1 sequence (C7G9C0 1-563): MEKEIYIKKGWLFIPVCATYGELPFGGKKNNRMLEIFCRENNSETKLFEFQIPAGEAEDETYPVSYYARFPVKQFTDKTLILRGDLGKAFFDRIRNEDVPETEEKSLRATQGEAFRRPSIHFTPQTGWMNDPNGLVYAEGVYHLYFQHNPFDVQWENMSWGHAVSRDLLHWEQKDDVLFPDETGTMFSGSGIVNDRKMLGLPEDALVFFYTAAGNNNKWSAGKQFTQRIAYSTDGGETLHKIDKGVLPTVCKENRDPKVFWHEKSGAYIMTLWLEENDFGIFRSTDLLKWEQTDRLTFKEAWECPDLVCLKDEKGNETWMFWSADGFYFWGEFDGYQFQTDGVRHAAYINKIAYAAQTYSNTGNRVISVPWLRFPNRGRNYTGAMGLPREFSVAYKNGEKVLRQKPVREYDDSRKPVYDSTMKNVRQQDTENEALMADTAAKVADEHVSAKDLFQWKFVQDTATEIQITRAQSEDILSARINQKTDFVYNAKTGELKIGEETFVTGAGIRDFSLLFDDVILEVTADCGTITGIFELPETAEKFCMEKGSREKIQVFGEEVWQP
Briefly: degradation by E. coli cell-free extract. In kind it is biochemical.

Regarding `OC[C@H]1O[C@@](CO)(OC[C@@]2(O[C@H]3O[C@H](CO)[C@@H](O)[C@H](O)[C@H]3O)O[C@H](CO)[C@@H](O)[C@@H]2O)[C@@H](O)[C@@H]1O` [kestose], the “degradation by E. coli cell-free extract” value is “cell-free extracts containing R.intestinalis-GH32”.

Regarding `OC[C@H]1O[C@@](CO)(OC[C@@]2(OC[C@@]3(O[C@H]4O[C@H](CO)[C@@H](O)[C@H](O)[C@H]4O)O[C@H](CO)[C@@H](O)[C@@H]3O)O[C@H](CO)[C@@H](O)[C@@H]2O)[C@@H](O)[C@@H]1O` [nystose], the “degradation by E. coli cell-free extract” value is listed as “cell-free extracts containing R.intestinalis-GH32”.
